Patent publication US7790896B2, “RNA-selective probes for live cell imaging of nuclear structure and function” (New York University, priority 2006, dated 2010)

Key:
[1] = tested on: Hela, A549, 3T3, and 3T3-L1 cells; test: Dye cell-tolerability: cell viability and morphology changes observed; format: cell-based, human, mouse; conditions: 20 μM, after 8 hours
Description: Low cytotoxicity is one of the most important criteria for live cell imaging probes. All four compounds were tested at 20 μM, 10 μM, 5 μM, and 1 μM in Hela, A549, 3T3, and 3T3-L1 cells. Cell viability and morphology changes were observed during 2, 8, and 24 hours. Only dye E36 was toxic to A549, 3T3, and 3T3-L1 cells at high concentration (20 μM) after 8 hours.

[2] = tested on: Fixed-permeabilized Hela cells; test: DNase and RNase digest test; format: cell-based, human; conditions: dye 50 μM, 2 hours; for Fluorescence after RNase digest: 25 μg/mL DNase-Free RNase; for Fluorescence after DNase digest: 30 μg/mL DNase
Description: Cells were first fixed using cold (−4° C.) pure methanol for 1 minute at ambient temperature. The cell membrane was then permeabilized by immersion in 1% Triton X-100 for 2 minutes. After rinsing with PBS twice, 100 μL of 50 μM dye PBS solution was added to three adjacent wells. Cells were then incubated in this dye PBS solution for 15 minutes in ambient temperature before being rinsed with clean PBS twice. 100 μL clean PBS (as control experiment), 30 μg/mL DNase (Sigma), or 25 μg/mL DNase-Free RNase (GE) was added to the three adjacent wells and incubated at 37° C. in 5% CO2 for 2 hours. Cells were rinsed with clean PBS twice before imaging. For each dye test, the fluorescent images were obtained using equal exposure time for control, DNase and RNase experiments. DAPI (10 μM) in PBS and SYTO®RNASelect (5 μM) in PBS solution were used for dual staining experiments. Duplicate experiments have been tested.
To further confirm that the compounds selectively bind RNA, a deoxyribonuclease (DNase) and ribonuclease (RNase) digest test was performed. In DNase digest, only the DNAs in the cell would be hydrolyzed. By contrast, in RNase digest, only RNAs would be hydrolyzed. Fixed-permeabilized Hela cells were used in this experiment and DAPI and SYTO®RNASelect were used as control dyes (FIG. 6). […] Still, its higher RNA-selective binding in live cell might be due to the complicated in vivo live cell environment, which may preferably direct this dye to nucleoli.

[3] = tested on: 3T3 fibroblast cells, 3T3-L1 adipocyte cells, Hela cells and A549 human lung carcinoma cells; test: Secondary screening: live cell nuclear imaging properties in four cell lines; format: cell-based, mouse; conditions: dye 25 μM
Description: (§1) All cell staining imaging followed the same procedure. Generally, dyes in dry state were first dissolved in DMSO to obtain the stock solution. The stock solutions were then added directly to the cell culture wells to reach the desired concentration. Total DMSO was lower than 0.1%. After adding dyes, cells were incubated at 37° C. in 5% CO2 for 25 minutes. The medium was then removed and cells were rinsed with fresh medium twice. The cells were then imaged at ambient temperature in the medium. Exposure time was kept less than 5 seconds and adjusted to each dye.
The selected compounds from both primary screens (total 88) were resynthesized in large scale and purified. The compounds' live cell nuclear imaging properties were then tested by four cell lines, including two mouse cell lines: 3T3 fibroblast cells and 3T3-L1 adipocyte cells; and two human cancer cell lines: Hela cells and A549 human lung carcinoma cells. Herein, the final dye concentration in each test was decreased to 25 μM and all the experiments were repeated to establish reproducibility. […] Each of the three dyes contained at least one high affinity nucleic acid functional group (Trotta et al., “Solution Structure of DAPI Selectively Bound in the Minor Groove of a DNA T-T Mismatch-Containing Site: NMR and Molecular Dynamics Studies,” Nucleic Acids Res. 26:4706-4713 (1998); Loontiens et al., “Binding Characteristics of Hoechst 33258 with Calf Thymus DNA, Poly[d(A-T)], and d(CCGGAATTCCGG): Multiple Stoichiometries and Determination of Tight Binding with a Wide Spectrum of Site Affinities,” Biochem. 29:9029-9039 (1990); Zipper et al., “Investigations on DNA Intercalation and Surface Binding by SYBR Green I, Its Structure Determination and Methodological Implications,” Nucleic Acid Res. 32:E103 (2004); Glazer et al., “Stable Dye-DNA Intercalation Complexes as Reagents for High-Sensitivity Fluorescence Detection,” Nature 359:859-861 (1992), which are hereby incorporated by reference in their entirety) in building block II such as the terminal secondary amine for F22 and F112, the trimethoxy for E 144, and the indole for E36.

[4] = tested on: Hela, A549, 3T3, and 3T3-L1; test: Optimization of working concentration and imaging properties, live cell staining; format: cell-based, human, mouse; conditions: 20, 10, 5 and 1 μM tested in four cell lines
Description: as §1
In fluorescence microscopic imaging studies, it is always desirable to use as little dye as possible to stain organelles in order to maximize specificity and minimize dye toxicity and cell death. To determine the lowest working concentration of each dye, four different concentrations (20 μM, 10 μM, 5 μM, and 1 μM) were tested in four cell lines (Hela, A549, 3T3, and 3T3-L1). Dyes E36, E144, and F112 were imaged using FITC channel, and F22 was imaged using Cy3 channel. Generally, a quality fluorescence signal for each dye was produced using a concentration of 5 μM for E36, E144, and F22 and 10 μM for F112 (Table 5). It was interesting to observe that compound F22 was brighter in 3T3 cells, and a concentration of 1 μM was sufficient for a clear image (FIG. 4). […] Little photobleaching and no obvious cell morphology or viability changes were observed during the tests.

[5] = tested on: RNA (Type VI from torula yeast); test: In vitro solution assay (primary screening): fluorescent emission fold change upon binding to RNA; conditions: dye 10 μM, RNA 500 μg/mL in TE buffer
Description: The fluorescence spectra data in the primary screening and selected dyes titration assay study was obtained by Gemini XS plate reader. RNA solution was prepared right before the assay experiments to avoid possible degradation and contamination. In the primary screening, 1 mg/mL RNA (type VI from torula yeast) buffer solution was used. Point scans were carried out first using five Ex/Em point sets ([…], 400/500, 450/550, 500/600, 550/650 nm). Spectra scans were then carried out for the selected dyes. Excitation wavelengths were set at 350 nm, 400 nm, 450 nm, 500 nm, and 550 nm and the emission wavelengths were scanned. RNA (16S- and 23S-ribosomal from E. coli) and DNA (salmon testes) titration experiments and quantum yield/extinction coefficient determination for the three best dyes were carried out by the plate reader as well. Excitation λmax obtained from F-2500 Hitachi Fluorophotometer was used. Absorbance wavelength was determined by SpectraMax Plus^384 absorbance plate reader. […] was chosen as standard and 480 nm was used as excitation wavelength in the scanning for quantum yield determination.
The screening strategy used in this study is illustrated in FIG. 2. Both in vitro RNA assays and live cell imaging methods were utilized in the primary screening of the dye library. Selective binding of the dye to RNA in solution was the primary criterion for selecting lead compounds for subsequent bioimaging studies, Herein, the library dyes' fluorescent emission intensity fold change upon binding to RNA was measured in solution. Dyes showing five-fold or higher emission changes in the presence of RNA were selected (Table 3). Note the dyes listed are identified by the building blocks I and II from Table 2. For example, A4 is the product made by reacting compound A from the list of Building block I and compound 4 from the list of Building block II.

Structure (SMILES)	Toxicity (cell viability and morphology changes) [1]	Fluorescence after RNase digest [2]	Fluorescence after DNase digest [2]	Live cell nuclear imaging properties (basis of selection) [3]	Optimum Concentration for live cell imaging [4] [µM]	Em(nm) [5] [nm]	Ex(nm) [5] [nm]	Fold (fluorescent emission fold changes to RNA) [5]
C[n+]1c(/C=C/c2c[nH]c3ccccc23)ccc2ccccc21 [Dye E36]	toxic	dramatically diminished	stayed almost the same	selective nucleolar targeting, high fluorescence intensity, low photobleaching, and low cellular toxicity	5	–	–	–
COc1cc(OC)c(/C=C/c2ccc3ccccc3[n+]2C)c(OC)c1 [Dye E144]	–	not detectable	not detectable	selective nucleolar targeting, high fluorescence intensity, low photobleaching, and low cellular toxicity	5	540	450	5
COc1ccc2c(ccc(/C=C/c3ccc(N(C)C)cc3)[n+]2C)c1 [Dye F22]	–	overall decrease in intensity	nucleolar stain remained bright	selective nucleolar targeting, high fluorescence intensity, low photobleaching, and low cellular toxicity	–	640	500	23
